Assay results from paper PMC3721678 (Biochemistry, 2010).

Experiments:
[1] = tested on: Helix aspersa agglutinin (HAA); experiment: SPR competition assay; assay type: binding, Cornu aspersum; details: 8 µM mIgA1κ as competed analyte, 25 °C; competitive
[2] = molecular target: T1, Helix pomatia agglutinin (HPA) (Helix pomatia, UniProt Q2F1K8); experiment: SPR competition assay; assay type: binding; details: 8 µM mIgA1κ as competed analyte, 25 °C; competitive
T1 sequence (Q2F1K8 20-121): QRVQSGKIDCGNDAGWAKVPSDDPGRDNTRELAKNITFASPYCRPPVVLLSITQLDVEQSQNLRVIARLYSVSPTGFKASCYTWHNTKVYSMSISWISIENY

IC50 [1]: 81 ± 8 µM | IC50 [2]: 220 ± 20 µM
SMILES: CC(=O)N[C@H]1C(O)O[C@H](CO)[C@H](O)[C@@H]1O (some centres unmarked) [GalNAc]
